system: FLAP (5-lipoxygenase activating protein); assay: In vitro binding test: displacement of [3H]-7-chloro-3-(5-((3-fluoropyridin-2-yl)methoxy)-2-methylphenyl)-3,4-dihydroquinazolin-2(1H)-one from Sf9 microsome fractions; parameters: species or system human and mouse; conditions: Sf9 microsome fractions expressing FLAP; 100% = radioligand binding with 10 μM sodium 3-(3-(tert-butylsulfanyl)-1-(4-chlorobenzyl)-5-isopropyl-1H-indol-2-yl)-2,2-dimethylpropanoate, 0% = DMSO; test compound concentration not given
Procedure, shortened: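 Sf9 microsomes expressing human or mouse FLAP (2 μg/mL) preincubated with compound 10 min at room temperature, then 120 nM tritiated quinazolinone ligand added for 60 min; buffer 100 mM Tris-HCl pH 7.5 with NaCl, EDTA, DTT, glycerol, Tween20. Bound ligand filtered and counted by scintillation; 10 μM indole propanoate defines 100% inhibition, DMSO 0%.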

Row | inhibitory rate (%) | Structure (SMILES)
1 | 89% | NC(=O)c1cc2c(c(C3CC3)n1)CN(c1cc3c(cc1Cl)CCC(c1ncccc1F)O3)C(=O)N2 (centres unmarked) [Example 95, 3-(6-chloro-2-(3-fluoropyridin-2-yl)-3,4-dihydro-2H-chromen-7-yl)-5-cyclopropyl-2-oxo-1,2,3,4-tetrahydropyrido[4,3-d]pyrimidine-7-carboxamide]
2 | 84% | CCc1cc2c(c(C3CC3)n1)CN(c1cc3c(cc1C)CCC(c1ncccc1F)O3)C(=O)N2 (centres unmarked) [Example 96, 5-cyclopropyl-7-ethyl-3-(2-(3-fluoropyridin-2-yl)-6-methyl-3,4-dihydro-2H-chromen-7-yl)-3,4-dihydropyrido[4,3-d]pyrimidin-2(1H)-one]
3 | 90% | COCCNC(=O)c1cc2c(c(C3CC3)n1)CN(c1cc3c(cc1Cl)CCC(c1ncccc1F)O3)C(=O)N2 (centres unmarked) [Example 97, 3-(6-chloro-2-(3-fluoropyridin-2-yl)-3,4-dihydro-2H-chromen-7-yl)-5-cyclopropyl-N-(2-methoxyethyl)-2-oxo-1,2,3,4-tetrahydropyrido[4,3-d]pyrimidine-7-carboxamide]
4 | 94% | O=C(NC1COC1)c1cc2c(c(C3CC3)n1)CN(c1cc3c(cc1Cl)CCC(c1ncccc1F)O3)C(=O)N2 (centres unmarked) [Example 98, 3-(6-chloro-2-(3-fluoropyridin-2-yl)-3,4-dihydro-2H-chromen-7-yl)-5-cyclopropyl-N-(oxetan-3-yl)-2-oxo-1,2,3,4-tetrahydropyrido[4,3-d]pyrimidine-7-carboxamide]
5 | 94% | CNC(=O)c1cc2c(c(C3CC3)n1)CN(c1cc3c(cc1Cl)CCC(c1ncccc1F)O3)C(=O)N2 (centres unmarked) [Example 99, 3-(6-chloro-2-(3-fluoropyridin-2-yl)-3,4-dihydro-2H-chromen-7-yl)-5-cyclopropyl-N-methyl-2-oxo-1,2,3,4-tetrahydropyrido[4,3-d]pyrimidine-7-carboxamide]
6 | 100% | Cn1cc(-c2cc3c(c(C4CC4)n2)CN(c2cc4c(cc2Cl)CCC(c2ncccc2F)O4)C(=O)N3)cn1 (centres unmarked) [Example 100, 3-(6-chloro-2-(3-fluoropyridin-2-yl)-3,4-dihydro-2H-chromen-7-yl)-5-cyclopropyl-7-(1-methyl-1H-pyrazol-4-yl)-3,4-dihydropyrido[4,3-d]pyrimidin-2(1H)-one]
7 | 96% | O=C(NCCO)c1cc2c(c(C3CC3)n1)CN(c1cc3c(cc1Cl)CCC(c1ncccc1F)O3)C(=O)N2 (centres unmarked) [Example 101, 3-(6-chloro-2-(3-fluoropyridin-2-yl)-3,4-dihydro-2H-chromen-7-yl)-5-cyclopropyl-N-(2-hydroxyethyl)-2-oxo-1,2,3,4-tetrahydropyrido[4,3-d]pyrimidine-7-carboxamide]
8 | 101% | Cn1cc(-c2ncc(Cl)c3c2NC(=O)N(c2cc4c(cc2Cl)CCC(c2ncccc2F)O4)C3)cn1 (centres unmarked) [Example 102, 5-chloro-3-(6-chloro-2-(3-fluoropyridin-2-yl)-3,4-dihydro-2H-chromen-7-yl)-8-(1-methyl-1H-pyrazol-4-yl)-3,4-dihydropyrido[3,4-d]pyrimidin-2(1H)-one]
9 | 94% | O=C1Nc2cc(-c3noc(=O)[nH]3)nc(C3CC3)c2CN1c1cc2c(cc1Cl)CCC(c1ncccc1F)O2 (centres unmarked) [Example 103, 3-(6-chloro-2-(3-fluoropyridin-2-yl)-3,4-dihydro-2H-chromen-7-yl)-5-cyclopropyl-7-(5-oxo-4,5-dihydro-1,2,4-oxadiazol-3-yl)-3,4-dihydropyrido[4,3-d]pyrimidin-2(1H)-one]
10 | 91% | Cc1cc2c(cc1N1Cc3c(cc(C4CC4)nc3-c3ccnn3C)NC1=O)OC(c1ncccc1F)CC2 (centres unmarked) [Example 104, 7-cyclopropyl-3-(2-(3-fluoropyridin-2-yl)-6-methyl-3,4-dihydro-2H-chromen-7-yl)-5-(1-methyl-1H-pyrazol-5-yl)-3,4-dihydropyrido[4,3-d]pyrimidin-2(1H)-one]

The next lines start with the compound.

Row | Structure (SMILES) | inhibitory rate (%)
11 | Cc1nc(C)c2c(c1Cl)CN(c1cc3c(cc1Cl)CCC(c1ncccc1F)O3)C(=O)N2 (centres unmarked) [Example 79, 5-chloro-3-(6-chloro-2-(3-fluoropyridin-2-yl)-3,4-dihydro-2H-chromen-7-yl)-6,8-dimethyl-3,4-dihydropyrido[3,4-d]pyrimidin-2(1H)-one] | 98%
12 | COc1ncc(Cl)c2c1NC(=O)N(c1cc3c(cc1Cl)CCC(c1ncccc1F)O3)C2 (centres unmarked) [Example 80, 5-chloro-3-(6-chloro-2-(3-fluoropyridin-2-yl)-3,4-dihydro-2H-chromen-7-yl)-8-methoxy-3,4-dihydropyrido[3,4-d]pyrimidin-2(1H)-one] | 107%
13 | O=C1Nc2c(N3CCOCC3)ncc(Cl)c2CN1c1cc2c(cc1Cl)CCC(c1ncccc1F)O2 (centres unmarked) [Example 81, 5-chloro-3-(6-chloro-2-(3-fluoropyridin-2-yl)-3,4-dihydro-2H-chromen-7-yl)-8-(morpholin-4-yl)-3,4-dihydropyrido[3,4-d]pyrimidin-2(1H)-one] | 102%
14 | Cc1cc2c(cc1N1Cc3c(Cl)cc(C(=O)NC4CC4)cc3NC1=O)OC(c1ncccc1F)CC2 (centres unmarked) [Example 82, 5-chloro-N-cyclopropyl-3-(2-(3-fluoropyridin-2-yl)-6-methyl-3,4-dihydro-2H-chromen-7-yl)-2-oxo-1,2,3,4-tetrahydroquinazoline-7-carboxamide] | 101%
15 | Cc1cc2c(c(C3CC3)n1)CN(c1cc3c(cc1C)CCC(c1ncccc1F)O3)C(=O)N2 (centres unmarked) [Example 83, 5-cyclopropyl-3-(2-(3-fluoropyridin-2-yl)-6-methyl-3,4-dihydro-2H-chromen-7-yl)-7-methyl-3,4-dihydropyrido[4,3-d]pyrimidin-2(1H)-one] | 96%
16 | CC(C)(O)c1nccc2c1CN(c1cc3c(cc1Cl)CCC(c1ncccc1F)O3)C(=O)N2 (centres unmarked) [Example 84, 3-(6-chloro-2-(3-fluoropyridin-2-yl)-3,4-dihydro-2H-chromen-7-yl)-5-(2-hydroxypropan-2-yl)-3,4-dihydropyrido[4,3-d]pyrimidin-2(1H)-one] | 106%
17 | O=C1Nc2cc(-c3ncco3)nc(C3CC3)c2CN1c1cc2c(cc1Cl)CCC(c1ncccc1F)O2 (centres unmarked) [Example 85, 3-(6-chloro-2-(3-fluoropyridin-2-yl)-3,4-dihydro-2H-chromen-7-yl)-5-cyclopropyl-7-(1,3-oxazol-2-yl)-3,4-dihydropyrido[4,3-d]pyrimidin-2(1H)-one] | 102%
18 | O=C1CCCN1c1cc2c(c(C3CC3)n1)CN(c1cc3c(cc1Cl)CCC(c1ncccc1F)O3)C(=O)N2 (centres unmarked) [Example 86, 3-(6-chloro-2-(3-fluoropyridin-2-yl)-3,4-dihydro-2H-chromen-7-yl)-5-cyclopropyl-7-(2-oxopyrrolidin-1-yl)-3,4-dihydropyrido[4,3-d]pyrimidin-2(1H)-one] | 108%
19 | Cc1cc2c(cc1N1Cc3c(C(F)(F)F)ncc(Br)c3NC1=O)OC(c1ncccc1F)CC2 (centres unmarked) [Example 87, 8-bromo-3-(2-(3-fluoropyridin-2-yl)-6-methyl-3,4-dihydro-2H-chromen-7-yl)-5-(trifluoromethyl)-3,4-dihydropyrido[4,3-d]pyrimidin-2(1H)-one] | 118%
20 | Cc1cc2c(cc1N1Cc3c(F)cncc3NC1=O)OC(c1ncccc1F)CC2 (centres unmarked) [Example 88, 5-fluoro-3-(2-(3-fluoropyridin-2-yl)-6-methyl-3,4-dihydro-2H-chromen-7-yl)-3,4-dihydropyrido[3,4-d]pyrimidin-2(1H)-one] | 96%
21 | COC(=O)/C=C/c1cc2c(c(C3CC3)n1)CN(c1cc3c(cc1C)CCC(c1ncccc1F)O3)C(=O)N2 (centres unmarked) [Example 89, methyl (2E)-3-(5-cyclopropyl-3-(2-(3-fluoropyridin-2-yl)-6-methyl-3,4-dihydro-2H-chromen-7-yl)-2-oxo-1,2,3,4-tetrahydropyrido[4,3-d]pyrimidin-7-yl)acrylate] | 98%
22 | O=C1Nc2cc(C3CC3)nc(C3CC3)c2CN1c1ccc2c(c1)OC(c1ncccc1F)CC2 (centres unmarked) [Example 90, 5,7-dicyclopropyl-3-(2-(3-fluoropyridin-2-yl)-3,4-dihydro-2H-chromen-7-yl)-3,4-dihydropyrido[4,3-d]pyrimidin-2(1H)-one] | 118%
23 | Cc1cc2c(cc1N1Cc3c(cc(/C=C/C(=O)O)nc3C3CC3)NC1=O)OC(c1ncccc1F)CC2 (centres unmarked) [Example 91, (2E)-3-(5-cyclopropyl-3-(2-(3-fluoropyridin-2-yl)-6-methyl-3,4-dihydro-2H-chromen-7-yl)-2-oxo-1,2,3,4-tetrahydropyrido[4,3-d]pyrimidin-7-yl)acrylic acid] | 109%
24 | Cc1cc2c(cc1N1Cc3c(C(F)(F)F)ncc(/C=C/C(=O)O)c3NC1=O)OC(c1ncccc1F)CC2 (centres unmarked) [Example 92, (2E)-3-(3-(2-(3-fluoropyridin-2-yl)-6-methyl-3,4-dihydro-2H-chromen-7-yl)-2-oxo-5-(trifluoromethyl)-1,2,3,4-tetrahydropyrido[4,3-d]pyrimidine-8-yl)acrylic acid] | 106%
25 | Cc1cc2c(cc1N1Cc3c(cc(-c4ccnn4C)nc3C3CC3)NC1=O)OC(c1ncccc1F)CC2 (centres unmarked) [Example 93, 5-cyclopropyl-3-(2-(3-fluoropyridin-2-yl)-6-methyl-3,4-dihydro-2H-chromen-7-yl)-7-(1-methyl-1H-pyrazol-5-yl)-3,4-dihydropyrido[4,3-d]pyrimidin-2(1H)-one] | 112%
26 | Cc1cc2c(cc1N1Cc3c(cc(CCC(=O)O)nc3C3CC3)NC1=O)OC(c1ncccc1F)CC2 (centres unmarked) [Example 94, 3-(5-cyclopropyl-3-(2-(3-fluoropyridin-2-yl)-6-methyl-3,4-dihydro-2H-chromen-7-yl)-2-oxo-1,2,3,4-tetrahydropyrido[4,3-d]pyrimidin-7-yl)propanoic acid] | 104%
